Laboratory results as given in patent US20110039762A1, “TARGETED ANTIMICROBIAL MOIETIES” (C3 JIAN, INC., priority 2009, published 2011).
Entries after “also recorded” stand apart in the source; their conditions may differ.

The substances below were run on microorganisms (e.g., bacteria, yeasts, fungi) (assay: Targeting peptide binding to target microorganisms (Table 3)). Details: microorganism the targeting peptide binds; binding in aqueous buffers varied by peptide solubility, preferably 1x PBS.

Substance	Target(s)
1T-301 (SKLPRVLDASLKL; Peptide with targeting and/or antimicrobial activity) [Peptide 1T-301]	F. nucleatum; also recorded: S. gordonii; also recorded: S. sanguinis
1T-270 (VHEFDIQKILQNR; Peptide with targeting and/or antimicrobial activity) [Peptide 1T-270]	F. nucleatum; also recorded: S. mutans; also recorded: S. oralis; also recorded: S. sanguinis
1T-19 (PGAFRNPQMPRG; Peptide with targeting and/or antimicrobial activity) [Peptide 1T-19]	S. aureus; also recorded: S. epidermidis; also recorded: P. aeruginosa
1T-80 (GGNLGPGFGVIIP; Peptide with targeting and/or antimicrobial activity) [Peptide 1T-80]	S. pneumoniae
1T-267 (RIKEERKNRSYKFFIWRLFDEKTGFI; Peptide with targeting and/or antimicrobial activity) [Peptide 1T-267]	A. naeslundii; also recorded: F. nucleatum; also recorded: P. gingivalis; also recorded: T. denticola; also recorded: S. mitis; also recorded: S. mutans; also recorded: S. oralis; also recorded: S. sanguinis
1T-119 (SPATQKAPTRAQPSRAPVQDCGDGRPTAAPDDVERLSPR; Peptide with targeting and/or antimicrobial activity) [Peptide 1T-119]	S. gordonii; also recorded: S. mitis; also recorded: S. mutans; also recorded: S. oralis
1T-49 (SLVRIHDQQPWVTRGAFIDAARTCS; Peptide with targeting and/or antimicrobial activity) [Peptide 1T-49]	S. aureus; also recorded: S. epidermidis; also recorded: C. jeikeium; also recorded: P. aeruginosa
1T-73 (GWWEELLHETILSKFKITKALELPIQL; Peptide with targeting and/or antimicrobial activity) [Peptide 1T-73]	S. pneumoniae
1T-75 (GVARGLQLGIKTRTQWGAATGAA; Peptide with targeting and/or antimicrobial activity) [Peptide 1T-75]	S. pneumoniae
TT-309 (EPLPLTKYDKKDTEMKKVFKEILAGKVGYEKEEE; Peptide with targeting and/or antimicrobial activity)	F. nucleatum
1T-264 (LEGKFYMAEDFDKTPECFKDYV; Peptide with targeting and/or antimicrobial activity) [Peptide 1T-264]	S. sanguinis
1T-104 (RAVAAHLQGRHHGHQVRRQRHGQR; Peptide with targeting and/or antimicrobial activity) [Peptide 1T-104]	S. mitis
1T-47 (VIKISVPGQVQMLIP; Peptide with targeting and/or antimicrobial activity) [Peptide 1T-47]	S. mutans; also recorded: S. epidermidis; also recorded: P. aeruginosa
1T-9 (WAWAESPRCVSTRSNIHALAFRVEVAALT; Peptide with targeting and/or antimicrobial activity) [Peptide 1T-9]	M. xanthus
1T-177 (GTNVPTQILGYSREERFDYEPAPEQR; Peptide with targeting and/or antimicrobial activity) [Peptide 1T-177]	P. gingivalis; also recorded: S. gordonii; also recorded: S. mitis; also recorded: S. mutans; also recorded: S. oralis; also recorded: S. salivarious; also recorded: S. sanguinis
1T-266 (RAGTWLVVDEIR; Peptide with targeting and/or antimicrobial activity) [Peptide 1T-266]	S. sanguinis
1T-294 (YDKIADGVFKIGKRGVL; Peptide with targeting and/or antimicrobial activity) [Peptide 1T-294]	T. denticola
1T-217 (MLSNVLSRSVVSPNVDIPNSMVILSPLLISISNYH; Peptide with targeting and/or antimicrobial activity) [Peptide 1T-217]	F. nucleatum; also recorded: S. sanguinis
1T-62 (GCKGCAQRDPCAEPEPYFRLR; Peptide with targeting and/or antimicrobial activity) [Peptide 1T-62]	S. epidermidis; also recorded: P. aeruginosa
1T-24 (EEAEEKLAEVSQAVKRLVR; Peptide with targeting and/or antimicrobial activity) [Peptide 1T-24]	P. aeruginosa

Same assay, conditions: microorganism(s) the targeting peptide binds; binding in aqueous buffers depending on peptide solubility, preferably 1x PBS

Substance	Target(s)
PF-147 (RRPRRRRSGHGQSASAA; Peptide with targeting and/or antimicrobial activity)	S. epidermidis and M. luteus and MRSA
PF-210 (EREDGCDAMPLP; Peptide with targeting and/or antimicrobial activity)	S. epidermidis and P. aeruginosa and C. albicans and MRSA and E. faecalis and C. jeikeium and C. jejuni
PF-352 (RVKKIG; Peptide with targeting and/or antimicrobial activity)	C. jeikeium
PF-193 (PPHCPPGHAKKGWC; Peptide with targeting and/or antimicrobial activity)	S. epidermidis and M. luteus and E. coli and MRSA and E. faecalis and C. jejuni
PF-130 (LQRSDEESMPRRHEKYS; Peptide with targeting and/or antimicrobial activity)	E. faecalis; also recorded: C. jeikeium; also recorded: C. jejuni
PF-146 (GCGKRRIITKSASRDTR; Peptide with targeting and/or antimicrobial activity)	S. epidermidis and M. luteus and P. aeruginosa and C. albicans and MRSA and C. jeikeium
PF-326 (VIVGNLGAQKEKRNDTPISAKKDIMGDKTVRVRADLHH; Peptide with targeting and/or antimicrobial activity)	S. mutans; also recorded: E. coli
PF-151 (EEYPARVPLSGEDVTEARRH; Peptide with targeting and/or antimicrobial activity)	S. epidermidis and MRSA and E. faecalis and C. jeikeium
PF-174 (RGGDSPARRRPGLAGPGGPG; Peptide with targeting and/or antimicrobial activity)	S. epidermidis; also recorded: P. aeruginosa; also recorded: C. jeikeium
PF-364 (LVNGIKI; Peptide with targeting and/or antimicrobial activity)	S. epidermidis; also recorded: B. fragilis; also recorded: P. aeruginosa; also recorded: C. jeikeium; also recorded: C. jejuni
PF-166 (SKAVSRKRSI; Peptide with targeting and/or antimicrobial activity)	E. coli; also recorded: C. jeikeium

Same assay, conditions: microorganism(s) the targeting peptide binds; peptide binding conducted in aqueous buffers varied by peptide solubility, preferably 1x PBS

Substance	Target(s)
PF-488 (YPNEQGHHKNNLKNIIIE; Peptide with targeting and/or antimicrobial activity)	S. mutans; also recorded: E. coli
PF-510 (WYLYKKQSNQNDRGIPK; Peptide with targeting and/or antimicrobial activity)	S. mutans; also recorded: E. coli
PF-412 (TSGWLGQLEQ; Peptide with targeting and/or antimicrobial activity)	M. luteus; also recorded: E. coli; also recorded: C. albicans; also recorded: C. jeikeium; also recorded: C. jejuni
PF-463 (MVILVFSLIFIFTDNYLVYQSKSIKEDVMI; Peptide with targeting and/or antimicrobial activity)	S. epidermidis; also recorded: E. coli; also recorded: P. aeruginosa; also recorded: C. albicans; also recorded: S. pneumoniae; also recorded: E. faecalis; also recorded: M. smegmatis

Same assay, conditions: peptide binding in aqueous buffers varied by peptide solubility; preferably 1x PBS

Substance	Target(s) (microorganisms bound by the targeting peptide)
PF-796 (YTQSNIPTAYALMLSNKDSI; Peptide with targeting and/or antimicrobial activity)	S. mutans
PF-779 (IYGDFFNFYLCDISLKVNGLQPGGPVRTVKLFGQPTGRCTPQ; Peptide with targeting and/or antimicrobial activity)	Mycobacteria spp.
PF-724 (CYRFLTPKRPTRIS; Peptide with targeting and/or antimicrobial activity)	L. pneumophila
PF-S029 (TSDTQSQSPWLFDNADIVNIYPVQLMHSSDND; Peptide with targeting and/or antimicrobial activity)	M. luteus; also recorded: P. mirabilis; also recorded: E. coli; also recorded: C. albicans; also recorded: C. jeikeium; also recorded: C. jejuni
PF-C063 (SHFRKGD; Peptide with targeting and/or antimicrobial activity)	A. naeslundii; also recorded: F. nucleatum; also recorded: S. mutans
PF-701 (PRGAQSGHG; Peptide with targeting and/or antimicrobial activity)	S. mutans
PF-709 (NKKHSPMD; Peptide with targeting and/or antimicrobial activity)	S. mutans
PF-778 (MNLILTAHGT; Peptide with targeting and/or antimicrobial activity)	Mycobacteria spp.
PF-641 (SWKCHHLAIGGSWKCHHLAI; Peptide with targeting and/or antimicrobial activity)	S. epidermidis and M. luteus and E. coli and C. albicans and MRSA and E. faecalis and C. jeikeium and C. jejuni
